Where a SMILES comes first, the peptide text is derived from it. Where no end group is shown, it is not given here. The star is where a group is joined. X2 = CC1(C)C(/C=C/C2=C(Oc3ccc(S(=O)(=O)O)cc3)C(=C/C=C3/N(CCCCCC(=O)NCCN4C(=O)CC(*)C4=O)c4ccc(S(=O)(=O)O)cc4C3(C)C)/CCC2)=[N+](CCCCS(=O)(=O)O)c2ccc(S(=O)(=O)[O-])cc21; X1 = CC1(C)C(/C=C/C=C/C=C/C=C2/N(CCCCCC(=O)NCCN3C(=O)CC(*)C3=O)c3ccc4ccccc4c3C2(C)C)=[N+](CCCCS(=O)(=O)[O-])c2ccc3ccccc3c21; ICG maleimide = indocyanine green maleimide
Columns and labels:
[1] = residue X in AcWL-X-LL, relative to virtual glycine; cited from earlier work
[2] = NIR fluorescence imaging of blood vessels and blood flow (ear, leg, blood samples) in mice; format: in vivo, mouse; conditions: for imaging of blood vessels in ear and leg: IV 100 μL of 40 μM, 5, 30, 60, 90, 120 min; for fluorescent signal in blood samples: blood collected 5-120 min after IV injection
Description: Adult female nude mice (Envigo), 20 g in body mass were used in the study. Fluorescent constructs were given as a single tail vein injection in amounts of 100 μL of 40 μM in PBS. Imaging of mouse ear and leg was performed at 5, 30, 60, 90 and 120 min after construct administration. At 5, 30, 60, 90 and 120 min after construct administration 5 μL of blood was withdrawn from tail (and mixed with 5 μL of anticoagulating solution to preserve blood) while animal was under anesthesia. Mice were euthanized immediately after last imaging point (120 min). Blood collected from all animals was deposited on the glass slide, dried and imaged. Imaging was performed using Novadaq clinical imaging instrument. Autofluorescence was established by imaging mouse with no injection of fluorescent constructs (the level of autofluorescence signal was insignificant compared to the signal after the constructs administration).

[3] = free ICG as used now; cited from earlier work
[4] = humans, high dose of 5 mg/kg of body weight; cited from earlier work
[5] = cited from earlier work
[6] = system: 4T1 murine mammary carcinoma; assay: Tumor targeting in mice bearing 4T1 tumors; format: in vivo, mouse; conditions: 20 μM, IV, 16 h
Description: Adult female nude mice and female BALB/cAnNHsd mice (Envigo), 20-25 g in body mass were used in the study. Mouse mammary cancer 4T1 cells were subcutaneously implanted in the right flank (8×10^5 cells/0.1 mL/flank) of adult female BALB/cAnNHsd mice. Rat bladder cancer AY27 cells were subcutaneously implanted in the right flank (8×10^5 cells/0.1 mL/flank) of adult female nude mice. When tumors reached approximately 5-6 mm in diameter, single tail vein injection or single intraperitoneal injection of fluorophore-pHLIP® solutions in PBS were performed. Fluorescent constructs were used in amounts of 100 μL of 40 μM, or 100 μL of 20 μM, or 100 μL of 10 μM, or 100 μL of 5 μM. Imaging of mouse was performed at 16 hours after constructs administration. Skin was removed from the tumor site just before imaging while animal was under gas anesthesia, and mice were euthanized immediately after imaging. Tumor, kidney and liver were harvested, imaged and used for histopathological analysis. Imaging was performed using Stryker clinical imaging instrument. Autofluorescence was established by imaging mouse with no injection of fluorescent constructs (the level of autofluorescence signal was insignificant compared to the signal after the constructs administration).

[7] = cited from earlier work; remark: listed apart in the source

| Molecule | ΔGX^cor, solvation free energy of the side chain [1] | also measured |
| --- | --- | --- |
| N[C@@H](Cc1c[nH]cn1)C(=O)O [His, Histidine] | -1.18 kcal/mol | – |
| C[C@H](N)C(=O)O [Ala, Alanine] | +0.65 kcal/mol | – |
| O=C(O)[C@@H]1CCCN1 [Pro, Proline] | +1.01 kcal/mol | – |
| C[C@@H](O)[C@H](N)C(=O)O [Thr, Threonine] | +0.90 kcal/mol | – |
| N[C@@H](CCC(=O)O)C(=O)O [Glu, Glutamic acid] | -2.48 kcal/mol | – |
| IR800-WT: IR800 maleimide conjugated to Cys of WT pHLIP® peptide (SEQ ID NO: 444) (AC(IR800 maleimide)EQNPIYWARYADWLFTTPLLLLDLALLVDADEGT) | – | imaging of blood vessels in ear and leg [2]: better in imaging of blood vessels, however not nearly as good as ICG-WT and ICG-Var3 pHLIP®s |
| N[C@@H](CO)C(=O)O [Ser, Serine] | +0.69 kcal/mol | – |
| N=C(N)NCCC[C@H](N)C(=O)O [Arg, Arginine] | -0.66 kcal/mol | – |
| CC1(C)C(/C=C/C=C/C=C/C=C2\N(CCCCS(=O)(=O)[O-])c3ccc4ccccc4c3C2(C)C)=[N+](CCCCS(=O)(=O)[O-])c2ccc3ccccc3c21.[Na+] [ICG, indocyanine green] | – | imaging time [3]: 2 to 5 min; toxic effects [4]: No significant toxic effects; time of appearance unconjugated in the bile ([5]; after intravenous injection): about 8 min; half-life time ([5]; following intravenous injection): 2.5 min; time to reach the nearest draining lymph node ([5]; injected outside blood vessels): ≤ 15 min |
| CC(C)[C@H](N)C(=O)O [Val, Valine] | +1.61 kcal/mol | – |
| N[C@@H](Cc1c[nH]c2ccccc12)C(=O)O [Trp, Tryptophan] | +3.24 kcal/mol | – |
| CC[C@H](C)[C@H](NC(=O)[C@@H]1CCCN1C(=O)[C@H](CC(N)=O)NC(=O)[C@H](CCC(N)=O)NC(=O)[C@H](CCC(=O)O)NC(=O)[C@H](CSC1CC(=O)N(CCNC(=O)CCCCCN2/C(=C/C=C/C=C/C=C/C3=[N+](CCCCS(=O)(=O)[O-])c4ccc5ccccc5c4C3(C)C)C(C)(C)c3c2ccc2ccccc32)C1=O)NC(=O)[C@H](C)N)C(=O)N[C@@H](Cc1ccc(O)cc1)C(=O)N[C@@H](Cc1c[nH]c2ccccc12)C(=O)N[C@@H](C)C(=O)N[C@@H](CCCNC(=N)N)C(=O)N[C@@H](Cc1ccc(O)cc1)C(=O)N[C@@H](C)C(=O)N[C@@H](CC(N)=O)C(=O)N[C@@H](Cc1c[nH]c2ccccc12)C(=O)N[C@@H](CC(C)C)C(=O)N[C@@H](Cc1ccccc1)C(=O)N[C@H](C(=O)N[C@H](C(=O)N1CCC[C@H]1C(=O)N[C@@H](CC(C)C)C(=O)N[C@@H](CC(C)C)C(=O)N[C@@H](CC(C)C)C(=O)N[C@@H](CC(C)C)C(=O)N[C@@H](CC(N)=O)C(=O)N[C@@H](CC(C)C)C(=O)N[C@@H](C)C(=O)N[C@@H](CC(C)C)C(=O)N[C@@H](CC(C)C)C(=O)N[C@H](C(=O)N[C@@H](CC(=O)O)C(=O)N[C@@H](C)C(=O)N[C@@H](CC(=O)O)C(=O)N[C@@H](CCC(=O)O)C(=O)NCC(=O)N[C@H](C(=O)O)[C@@H](C)O)C(C)C)[C@@H](C)O)[C@@H](C)O (some centres unmarked) [ICG-NpHLIP®] (H-AC(X1)EQNPIYWARYANWLFTTPLLLLNLALLVDADEGT-OH) | – | fluorescent signal in blood samples [2]: significantly reduced signal |
| ICG-Hum pHLIP®: ICG maleimide conjugated to Cys of Hum pHLIP® GCDNNEGFFATLGGEIPLWSDVVLAIEG (SEQ ID NO: 446) (GC(ICG maleimide)DNNEGFFATLGGEIPLWSDVVLAIEG) | – | imaging of blood vessels in ear and leg [2]: slow in reaching the best imagibility condition and was fast in decaying |
| N[C@@H](Cc1ccccc1)C(=O)O [Phe, Phenylalanine] | +2.86 kcal/mol | – |
| NCCCC[C@H](N)C(=O)O [Lys, Lysine] | -1.65 kcal/mol | – |
| CSCC[C@H](N)C(=O)O [Met, Methionine] | +1.82 kcal/mol | – |
| N[C@@H](CC(=O)O)C(=O)O [Asp, Aspartic acid] | -2.49 kcal/mol | – |
| CC(C)C[C@H](NC(=O)[C@H](Cc1ccc(O)cc1)NC(=O)[C@H](C)NC(=O)[C@H](CCCNC(=N)N)NC(=O)[C@H](Cc1c[nH]c2ccccc12)NC(=O)[C@@H]1CCCN1C(=O)[C@H](CC(N)=O)NC(=O)[C@H](CCC(N)=O)NC(=O)[C@H](CC(=O)O)NC(=O)[C@H](CC(=O)O)NC(=O)[C@H](CSC1CC(=O)N(CCNC(=O)CCCCCN2/C(=C/C=C3\CCCC(/C=C/C4=[N+](CCCCS(=O)(=O)O)c5ccc(S(=O)(=O)[O-])cc5C4(C)C)=C3Oc3ccc(S(=O)(=O)O)cc3)C(C)(C)c3cc(S(=O)(=O)O)ccc32)C1=O)NC(=O)[C@H](C)N)C(=O)N[C@@H](CC(=O)O)C(=O)N[C@@H](CC(C)C)C(=O)N[C@@H](CC(C)C)C(=O)N[C@@H](Cc1ccccc1)C(=O)N1CCC[C@H]1C(=O)N[C@H](C(=O)N[C@@H](CC(=O)O)C(=O)N[C@H](C(=O)N[C@@H](CC(C)C)C(=O)N[C@@H](CC(C)C)C(=O)N[C@@H](CC(C)C)C(=O)N[C@@H](CC(=O)O)C(=O)N[C@@H](CC(C)C)C(=O)N[C@@H](CC(C)C)C(=O)N[C@@H](Cc1c[nH]c2ccccc12)C(=O)N[C@@H](C)C(=O)O)[C@@H](C)O)[C@@H](C)O (some centres unmarked) [IR800-Var3] (H-AC(X2)DDQNPWRAYLDLLFPTDTLLLDLLWA-OH) | – | organ of clearance [6]: cleared by the kidney |
| NC(=O)C[C@H](N)C(=O)O [Asn, Asparagine] | +0.30 kcal/mol | – |
| C#CCNC(=O)CCCCC[N+]1=C(/C=C/C=C/C=C/C=C2\N(CCCCS(=O)(=O)[O-])c3ccc4ccccc4c3C2(C)C)C(C)(C)c2c1ccc1ccccc21 [ICG-alkyne] | – | Solubility [7]: DMSO, DMF, Acetonitrile, Methanol |
| N[C@@H](Cc1ccc(O)cc1)C(=O)O [Tyr, Tyrosine] | +1.86 kcal/mol | – |
| CC[C@H](C)[C@H](NC(=O)[C@@H]1CCCN1C(=O)[C@H](CC(N)=O)NC(=O)[C@H](CCC(N)=O)NC(=O)[C@H](CCC(=O)O)NC(=O)[C@H](CSC1CC(=O)N(CCNC(=O)CCCCCN2/C(=C/C=C/C=C/C=C/C3=[N+](CCCCS(=O)(=O)[O-])c4ccc5ccccc5c4C3(C)C)C(C)(C)c3c2ccc2ccccc32)C1=O)NC(=O)[C@H](C)N)C(=O)N[C@@H](Cc1ccc(O)cc1)C(=O)N[C@@H](Cc1c[nH]c2ccccc12)C(=O)N[C@@H](C)C(=O)N[C@@H](CCCNC(=N)N)C(=O)N[C@@H](Cc1ccc(O)cc1)C(=O)N[C@@H](C)C(=O)N[C@@H](CC(=O)O)C(=O)N[C@@H](Cc1c[nH]c2ccccc12)C(=O)N[C@@H](CC(C)C)C(=O)N[C@@H](Cc1ccccc1)C(=O)N[C@H](C(=O)N[C@H](C(=O)N1CCC[C@H]1C(=O)N[C@@H](CC(C)C)C(=O)N[C@@H](CC(C)C)C(=O)N[C@@H](CC(C)C)C(=O)N[C@@H](CC(C)C)C(=O)N[C@@H](CC(=O)O)C(=O)N[C@@H](CC(C)C)C(=O)N[C@@H](C)C(=O)N[C@@H](CC(C)C)C(=O)N[C@@H](CC(C)C)C(=O)N[C@H](C(=O)N[C@@H](CC(=O)O)C(=O)N[C@@H](C)C(=O)N[C@@H](CC(=O)O)C(=O)N[C@@H](CCC(=O)O)C(=O)NCC(=O)N[C@H](C(=O)O)[C@@H](C)O)C(C)C)[C@@H](C)O)[C@@H](C)O (some centres unmarked) [ICG-WT pHLIP®] | – | fluorescent signal in blood samples [2]: persistence of strong fluorescent signal within 2 hours |

— patent US11738096B2, “Method of detecting diseased or damaged tissue with a pH-triggered polypeptide fluorophore composition” (University of Rhode Island Board of Trustees, priority 2016, dated 2023)
